Reference: ChEMBL document CHEMBL6178015, “Discovery of a Novel Serine-Targeting Covalent Inhibitor against HCES2A for Treating Drug-induced Diarrhea and Ulcerative Colitis” (J Med Chem, 2025)

Columns and labels:
[1] = Inhibition of human CES1A using NLMe as substrate preincubated for 3 mins followed by substrate addition and measured after 20 mins by chemiluminescence analysis
[2] = Inhibition of human CES2A using fluorescein diacetate as substrate preincubated for 3 mins followed by substrate addition and measured after 30 mins by fluorescence microplate reader
[3] = species: Homo sapiens; test: Selectivity index, ratio of IC50 for inhibition of human CES1A to IC50 for inhibition of human CES2A

## CCCCCCCCC(=O)c1cccc2oc(-c3cc(OC)ccc3OC(=O)N(C)C)cc12
[1]
  IC50: 239 nM
[2]
  IC50: 0.189 nM
[3]
  Ratio IC50: 1260

## CCCCCCC(=O)c1cccc2oc(-c3ccccc3NC(=O)OCCCl)cc12
[1]
  IC50: > 10000 nM
[2]
  IC50: 56.6 nM
[3]
  Ratio IC50: > 176

## CN(C)C(=O)C(CCN1CCC(O)(c2ccc(Cl)cc2)CC1)(c1ccccc1)c1ccccc1 [LOPERAMIDE]
[2]
  IC50: 351 nM

## CCCCCCC(=O)c1cccc2oc(-c3cc(C)ccc3N)cc12
[2]
  IC50: 612 nM

## CCCCCCOC(=O)Nc1ccc(C)cc1-c1cc2c(C(=O)CCCCCC)cccc2o1
[2]
  IC50: 362 nM

## CCCCCCC(=O)c1cccc2oc(-c3cc(OC)ccc3OC(=O)N(C)C)cc12
[1]
  IC50: 22.9 nM
[2]
  IC50: 0.509 nM
[3]
  Ratio IC50: 44.8

## CCCCCCCCC(=O)c1cccc2oc(-c3cc(C)ccc3N)cc12
[2]
  IC50: 736 nM

## CCCCCCCCC(=O)c1cccc2oc(-c3ccccc3N)cc12
[2]
  IC50: 881 nM

## C=CCOC(=O)Nc1ccc(C)cc1-c1cc2c(C(=O)CCCCCC)cccc2o1
[2]
  IC50: 383 nM

## CCCCCCCCC(=O)c1cccc2oc(-c3cc(OC)ccc3OC(=O)N(C)CC)cc12
[1]
  IC50: 4 nM
[2]
  IC50: 0.625 nM
[3]
  Ratio IC50: 6.4

## CCCCCCC(=O)c1cccc2oc(-c3cc(C)ccc3NC(=O)OCC3c4ccccc4-c4ccccc43)cc12
[2]
  IC50: 2140 nM

## CCCCCCOC(=O)Nc1ccccc1-c1cc2c(C(=O)CCCCCC)cccc2o1
[2]
  IC50: > 10000 nM

## CCCCCCCCC(=O)c1cccc2oc(-c3cc(OC)ccc3OC(=O)N3CCOCC3)cc12
[1]
  IC50: 29.2 nM
[2]
  IC50: 0.542 nM
[3]
  Ratio IC50: 53.9

## CCCCCCC(=O)c1c(C)ccc2oc(-c3cc(OC)ccc3O)cc12
[2]
  IC50: 1.55 nM

## CCCCCCCCC(=O)c1cccc2oc(-c3cc(OC)ccc3OC(=O)N(CC)CC)cc12
[2]
  IC50: 6.37 nM

## CCCCCCC(=O)c1cccc2oc(-c3cc(C)ccc3NC(=O)OCC(CC)CCCC)cc12 (stereo unspecified)
[2]
  IC50: 4260 nM
